Laboratory results reported in ChEMBL document CHEMBL1139666, “Discovery and synthesis of a novel series of quinoline-based thrombin receptor (PAR-1) antagonists” (Bioorg Med Chem Lett, 2006).
The source made the active and inactive calls. The rule behind the calls is not given here.

Target: T1, Proteinase-activated receptor 1 (Homo sapiens, UniProt P25116)
T1 sequence (P25116 whole entry): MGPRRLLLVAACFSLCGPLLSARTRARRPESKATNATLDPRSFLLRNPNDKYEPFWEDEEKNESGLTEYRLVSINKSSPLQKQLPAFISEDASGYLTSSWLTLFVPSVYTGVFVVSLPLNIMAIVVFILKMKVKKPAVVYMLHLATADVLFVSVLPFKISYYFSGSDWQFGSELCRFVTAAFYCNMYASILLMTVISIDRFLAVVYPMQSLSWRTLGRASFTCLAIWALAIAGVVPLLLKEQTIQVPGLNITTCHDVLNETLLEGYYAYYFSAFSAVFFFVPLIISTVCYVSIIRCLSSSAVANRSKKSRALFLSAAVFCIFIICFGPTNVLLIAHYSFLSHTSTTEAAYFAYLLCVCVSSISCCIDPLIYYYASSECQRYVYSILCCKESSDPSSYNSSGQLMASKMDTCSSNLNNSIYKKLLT
Assay: Displacement of [3H]haTRAP from PAR1 in human platelet membrane at […]
Type: cell membranes
Conditions: not given

Row | IC50 | Compound
1 | Not Active | C[C@H]1OC(=O)[C@@H]2C[C@@H]3CCCC[C@H]3[C@H](/C=C/c3ccc4cc(OC(F)(F)F)ccc4n3)[C@H]12
2 | Not Active | C[C@H]1OC(=O)[C@@H]2C[C@@H]3CCCC[C@H]3[C@H](/C=C/c3ccc4cc(OCCN)ccc4n3)[C@H]12 (racemic)
3 | Not Active | C[C@H]1OC(=O)[C@@H]2C[C@@H]3CCCC[C@H]3[C@H](/C=C/c3cc(OCc4ccccc4)c4ccccc4n3)[C@H]12 (racemic)
4 | Not Active | COc1cc(/C=C/[C@H]2[C@@H]3CCCC[C@H]3C[C@H]3C(=O)O[C@H](C)[C@@H]23)nc2ccccc12 (racemic)

Tested on: Cynomolgus monkey
Assay: Inhibition of platelet aggregation in cynomolgus monkey 2 hrs post dose iv
Type: functional, organism-based
Conditions: Macaca fascicularis

Row | Compound | inhibition
5 | C[C@H]1OC(=O)[C@@H]2C[C@@H]3CCCC[C@H]3[C@H](/C=C/c3ccc4cc(OCC(=O)O)ccc4n3)[C@H]12 | Active

Target: T1, Proteinase-activated receptor 1
Assay: Displacement of [3H]haTRAP from PAR1 in human platelet membrane
Type: cell membranes
Conditions: not given

Row | IC50 | Compound
6 | 155 nM | C[C@H]1OC(=O)[C@@H]2C[C@@H]3CCCC[C@H]3[C@H](/C=C/c3ccc4cc(Cl)ccc4n3)[C@H]12 (racemic)
7 | 500 nM | C[C@H]1OC(=O)[C@@H]2C[C@@H]3CCCC[C@H]3[C@H](/C=C/c3ccc4cc(OCC(=O)N5CCOCC5)ccc4n3)[C@H]12
8 | 29 nM | C[C@H]1OC(=O)[C@@H]2C[C@@H]3CCCC[C@H]3[C@H](/C=C/c3ccc4cc(OCC(=O)O)ccc4n3)[C@H]12
9 | 50 nM | COc1ccc2nc(/C=C/[C@H]3[C@@H]4CCCC[C@H]4C[C@H]4C(=O)O[C@H](C)[C@@H]34)ccc2c1OC
10 | 800 nM | C[C@H]1OC(=O)[C@@H]2C[C@@H]3CCCC[C@H]3[C@H](/C=C/c3ccc4cc(OC(C)(C)C(N)=O)ccc4n3)[C@H]12
11 | 100 nM | CC(=O)Nc1ccc2nc(/C=C/[C@H]3[C@@H]4CCCC[C@H]4C[C@H]4C(=O)O[C@H](C)[C@@H]34)ccc2c1
12 | 30 nM | C[C@H]1OC(=O)[C@@H]2C[C@@H]3CCCC[C@H]3[C@H](/C=C/c3ccc4cc(N)ccc4n3)[C@H]12
13 | 50 nM | C[C@H]1OC(=O)[C@@H]2C[C@@H]3CCCC[C@H]3[C@H](/C=C/c3ccc4cc(-c5ccsc5)ccc4n3)[C@H]12
14 | 290 nM | C[C@H]1OC(=O)[C@@H]2C[C@@H]3CCCC[C@H]3[C@H](/C=C/c3ccc4cc(OCC(=O)NC5CC5)ccc4n3)[C@H]12
15 | 2150 nM | C[C@H]1OC(=O)[C@@H]2C[C@@H]3CCCC[C@H]3[C@H](/C=C/c3ccc4cc(NC(=O)C(C)(C)C)ccc4n3)[C@H]12
16 | 500 nM | C[C@H]1OC(=O)[C@@H]2C[C@@H]3CCCC[C@H]3[C@H](/C=C/c3ccc4cc(OC(C)(C)C(=O)Nc5ccccc5)ccc4n3)[C@H]12
17 | 800 nM | COc1ccc2nc(/C=C/[C@H]3[C@@H]4CCCC[C@H]4C[C@H]4C(=O)O[C@H](C)[C@@H]34)ccc2c1Cl (racemic)

Further lines, the molecule ahead of its results:

Row | Compound | IC50
18 | C[C@H]1OC(=O)[C@@H]2C[C@@H]3CCCC[C@H]3[C@H](/C=C/c3ccc4cc(OCc5ccccc5)ccc4n3)[C@H]12 | 1250 nM
19 | C[C@H]1OC(=O)[C@@H]2C[C@@H]3CCCC[C@H]3[C@H](/C=C/c3ccc4cc(NC(=O)c5ccccc5)ccc4n3)[C@H]12 | 219 nM
20 | CCCC(=O)Nc1ccc2nc(/C=C/[C@H]3[C@@H]4CCCC[C@H]4C[C@H]4C(=O)O[C@H](C)[C@@H]34)ccc2c1 | 28 nM
21 | C[C@H]1OC(=O)[C@@H]2C[C@@H]3CCCC[C@H]3[C@H](/C=C/c3ccc4cc(-c5cccc(C(F)(F)F)c5)ccc4n3)[C@H]12 | 300 nM
22 | C[C@H]1OC(=O)[C@@H]2C[C@@H]3CCCC[C@H]3[C@H](/C=C/c3ccc4cc(-c5cccs5)ccc4n3)[C@H]12 | 300 nM
23 | C[C@H]1OC(=O)[C@@H]2C[C@@H]3CCCC[C@H]3[C@H](/C=C/c3ccc4cc(OCCNC(=O)OC(C)(C)C)ccc4n3)[C@H]12 (racemic) | 275 nM
24 | C[C@H]1OC(=O)[C@@H]2C[C@@H]3CCCC[C@H]3[C@H](/C=C/c3ccc4cc(O)ccc4n3)[C@H]12 | 6.3 nM
25 | C[C@H]1OC(=O)[C@@H]2C[C@@H]3CCCC[C@H]3[C@H](/C=C/c3ccc4cc(OCC(N)=O)ccc4n3)[C@H]12 | 1000 nM
26 | CCC(=O)Nc1ccc2nc(/C=C/[C@H]3[C@@H]4CCCC[C@H]4C[C@H]4C(=O)O[C@H](C)[C@@H]34)ccc2c1 | 68 nM
27 | Cc1cccc2ccc(/C=C/[C@H]3[C@@H]4CCCC[C@H]4C[C@H]4C(=O)O[C@H](C)[C@@H]34)nc12 (racemic) | 390 nM
28 | C[C@H]1OC(=O)[C@@H]2C[C@@H]3CCCC[C@H]3[C@H](/C=C/c3ccc4cc(F)ccc4n3)[C@H]12 (racemic) | 730 nM
29 | CCOc1ccc2nc(/C=C/[C@H]3[C@@H]4CCCC[C@H]4C[C@H]4C(=O)O[C@H](C)[C@@H]34)ccc2c1 (racemic) | 125 nM
30 | Cc1ccc2ccc(/C=C/[C@H]3[C@@H]4CCCC[C@H]4C[C@H]4C(=O)O[C@H](C)[C@@H]34)nc2c1 (racemic) | 150 nM
31 | C[C@H]1OC(=O)[C@@H]2C[C@@H]3CCCC[C@H]3[C@H](/C=C/c3ccc4cc(OCC(=O)Nc5ccccc5)ccc4n3)[C@H]12 | 25 nM
32 | COc1cccc2ccc(/C=C/[C@H]3[C@@H]4CCCC[C@H]4C[C@H]4C(=O)O[C@H](C)[C@@H]34)nc12 (racemic) | 700 nM

Tested on: not listed separately
Assay: AUC(0-4h) in cynomolgus monkey at 10 mg/kg
Type: ADME, organism-based, Macaca fascicularis
Parameters: time < 5 hr, dose 10 mg/kg
Conditions: plasma

Row | AUC(0-t) at 5 h | Compound
33 | 826 ng·h/mL | C[C@H]1OC(=O)[C@@H]2C[C@@H]3CCCC[C@H]3[C@H](/C=C/c3ccc4cc(O)ccc4n3)[C@H]12
34 | 17 ng·h/mL | C[C@H]1OC(=O)[C@@H]2C[C@@H]3CCCC[C@H]3[C@H](/C=C/c3ccc4cc(OCC(=O)O)ccc4n3)[C@H]12

Tested on: Cynomolgus monkey
Assay: Inhibition of platelet aggregation in orally dosed cynomolgus monkey
Type: functional, organism-based
Conditions: Macaca fascicularis

Row | Compound | inhibition
35 | C[C@H]1OC(=O)[C@@H]2C[C@@H]3CCCC[C@H]3[C@H](/C=C/c3ccc4cc(OCC(=O)O)ccc4n3)[C@H]12 | inactive
